# Assay results taken from ChEMBL document CHEMBL1201862, “PubChem BioAssay data set” (2004).
#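 Where inhibition never reached the appropriate level, the endpoint shown equals the highest concentration tested. Otherwise, values were interpolated linearly from a five-concentration, 48-hour dose response in 96-well plates. GI50 = concentration required for 50% inhibition of growth.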 The source made the active and inactive calls. Rule as the data show it: active = GI50 up to about 1.1 µM and inactive = higher.
# Tests used:
# Test in all cases: inhibition of tumour cell growth, NCI panel, 48 h
# A549 = test system: A549
# EKVX = test system: EKVX
# 786-0 = test system: 786-0
# SW-620 = test system: SW-620
# Hs-578T = test system: Hs-578T
# HCT-15 = test system: HCT-15
# SK-MEL-28 = test system: SK-MEL-28
# SF-268 = test system: SF-268
# SNB-75 = test system: SNB-75
# PC-3 = test system: PC-3
# ACHN = test system: ACHN
# T47D = test system: T47D
# MDA-MB-435 = test system: MDA-MB-435
# OVCAR-5 = test system: OVCAR-5
# RPMI-8226 = test system: RPMI-8226
# HT-29 = test system: HT-29
# K562 = test system: K562
# OVCAR-4 = test system: OVCAR-4
# DU-145 = test system: DU-145
# OVCAR-8 = test system: OVCAR-8
# NCI-H460 = test system: NCI-H460
# Malme-3M = test system: Malme-3M
# COLO 205 = test system: COLO 205
# CCRF-CEM = test system: CCRF-CEM
# IGROV-1 = test system: IGROV-1
# SF-295 = test system: SF-295
# SR = test system: SR
# SK-MEL-5 = test system: SK-MEL-5
# SK-MEL-2 = test system: SK-MEL-2
# HCT-116 = test system: HCT-116
# MDA-N = test system: MDA-N
# NCI-H23 = test system: NCI-H23
# KM12 = test system: KM12
# U-251 = test system: U-251
# M14 = test system: M14
# MDA-MB-231 = test system: MDA-MB-231
# SK-OV-3 = test system: SK-OV-3
# UACC-62 = test system: UACC-62
# HL-60 = test system: HL-60
# NCI/ADR-RES = test system: NCI/ADR-RES
# UACC-257 = test system: UACC-257
# HCC 2998 = test system: HCC 2998
# UO-31 = test system: UO-31
# SNB-19 = test system: SNB-19
# CAKI-1 = test system: CAKI-1
# NCI-H226 = test system: NCI-H226
# RXF 393 = test system: RXF 393
# A498 = test system: A498
# MOLT-4 = test system: MOLT-4
# LOX IMVI = test system: LOX IMVI
# OVCAR-3 = test system: OVCAR-3
# SF-539 = test system: SF-539
# MCF7 = test system: MCF7
# TK-10 = test system: TK-10
# BT-549 = test system: BT-549
# HOP-92 = test system: HOP-92
# NCI-H522 = test system: NCI-H522
# SN12C = test system: SN12C
# HOP-62 = test system: HOP-62
smiles,measurement,setting,value
Cc1ccc(C(=O)/C=C(\O)C(=O)NN=C(c2ccccc2)c2ccccc2)cc1,GI50,A549,41.2 µM (inactive)
same,GI50,EKVX,> 100 µM (inactive)
same,GI50,786-0,28.4 µM (inactive)
same,GI50,SW-620,50.5 µM (inactive)
same,GI50,Hs-578T,56.9 µM (inactive)
same,GI50,HCT-15,39 µM
same,GI50,SK-MEL-28,> 100 µM (inactive)
same,GI50,SF-268,> 100 µM (inactive)
same,GI50,SNB-75,82.4 µM (inactive)
same,GI50,PC-3,40.2 µM (inactive)
same,GI50,ACHN,45 µM (inactive)
same,GI50,T47D,> 100 µM (inactive)
same,GI50,MDA-MB-435,> 100 µM (inactive)
same,GI50,OVCAR-5,> 100 µM (inactive)
same,GI50,RPMI-8226,26.6 µM (inactive)
same,GI50,HT-29,> 100 µM (inactive)
same,GI50,K562,17.3 µM (inactive)
same,GI50,OVCAR-4,63.1 µM (inactive)
same,GI50,DU-145,> 100 µM (inactive)
same,GI50,OVCAR-8,76.4 µM (inactive)
same,GI50,NCI-H460,40.6 µM (inactive)
same,GI50,Malme-3M,> 100 µM (inactive)
same,GI50,COLO 205,40.4 µM (inactive)
same,GI50,CCRF-CEM,29.2 µM (inactive)
same,GI50,IGROV-1,62.7 µM (inactive)
same,GI50,SF-295,66.8 µM (inactive)
same,GI50,SR,27.2 µM (inactive)
same,GI50,SK-MEL-5,53.1 µM (inactive)
same,GI50,SK-MEL-2,> 100 µM (inactive)
same,GI50,HCT-116,36.5 µM (inactive)
same,GI50,MDA-N,> 100 µM (inactive)
same,GI50,NCI-H23,> 100 µM (inactive)
same,GI50,KM12,77.4 µM (inactive)
same,GI50,U-251,46.2 µM (inactive)
same,GI50,M14,> 100 µM (inactive)
same,GI50,MDA-MB-231,> 100 µM (inactive)
same,GI50,SK-OV-3,> 100 µM (inactive)
same,GI50,UACC-62,68.9 µM (inactive)
same,GI50,HL-60,13.9 µM (inactive)
same,GI50,NCI/ADR-RES,30.5 µM (inactive)
same,GI50,UACC-257,> 100 µM (inactive)
same,GI50,HCC 2998,80 µM (inactive)
same,GI50,UO-31,55.6 µM (inactive)
same,GI50,SNB-19,58.9 µM (inactive)
same,GI50,CAKI-1,> 100 µM (inactive)
same,GI50,NCI-H226,> 100 µM (inactive)
same,GI50,RXF 393,> 100 µM (inactive)
same,GI50,A498,> 100 µM (inactive)
same,GI50,MOLT-4,58.9 µM (inactive)
same,GI50,LOX IMVI,12.2 µM (inactive)
same,GI50,OVCAR-3,> 100 µM (inactive)
same,GI50,SF-539,> 100 µM (inactive)
same,GI50,MCF7,54.6 µM (inactive)
same,GI50,TK-10,> 100 µM (inactive)
same,GI50,BT-549,47.9 µM (inactive)
same,GI50,HOP-92,28 µM (inactive)
COc1cccc(/C=C2/S/C(=N/Nc3nc(C)c(C(C)=O)s3)NC2=O)c1O,GI50,A549,37.9 µM (inactive)
same,GI50,EKVX,24.9 µM (inactive)
same,GI50,786-0,27.8 µM (inactive)
same,GI50,NCI-H522,17.3 µM (inactive)
same,GI50,SW-620,29.2 µM (inactive)
same,GI50,Hs-578T,57.8 µM (inactive)
same,GI50,HCT-15,26.2 µM
same,GI50,SK-MEL-28,39.7 µM (inactive)
same,GI50,SN12C,31.7 µM (inactive)
same,GI50,SF-268,40.6 µM (inactive)
same,GI50,SNB-75,37.9 µM (inactive)
same,GI50,PC-3,25.9 µM (inactive)
same,GI50,ACHN,22 µM (inactive)
same,GI50,T47D,23.3 µM (inactive)
same,GI50,MDA-MB-435,30.5 µM (inactive)
same,GI50,OVCAR-5,26.4 µM (inactive)
same,GI50,RPMI-8226,27 µM (inactive)
same,GI50,HT-29,37.6 µM (inactive)
same,GI50,K562,31.1 µM (inactive)
same,GI50,OVCAR-4,30.3 µM (inactive)
same,GI50,DU-145,34.4 µM (inactive)
same,GI50,OVCAR-8,34.3 µM (inactive)
same,GI50,NCI-H460,29.6 µM (inactive)
same,GI50,Malme-3M,33 µM (inactive)
same,GI50,COLO 205,27.5 µM (inactive)
same,GI50,CCRF-CEM,18.2 µM (inactive)
same,GI50,IGROV-1,35.9 µM (inactive)
same,GI50,SF-295,52.8 µM (inactive)
same,GI50,SR,27.7 µM (inactive)
same,GI50,SK-MEL-5,20.9 µM (inactive)
same,GI50,SK-MEL-2,21.2 µM (inactive)
same,GI50,HCT-116,30.7 µM (inactive)
same,GI50,MDA-N,31.7 µM (inactive)
same,GI50,NCI-H23,35.3 µM (inactive)
same,GI50,KM12,36.2 µM (inactive)
same,GI50,HOP-62,51.6 µM (inactive)
same,GI50,U-251,18.5 µM (inactive)
same,GI50,M14,32.8 µM (inactive)
same,GI50,MDA-MB-231,18.9 µM (inactive)
same,GI50,SK-OV-3,66.8 µM (inactive)
same,GI50,UACC-62,20.1 µM (inactive)
same,GI50,HL-60,12.4 µM (inactive)
same,GI50,NCI/ADR-RES,33.8 µM (inactive)
same,GI50,UACC-257,25.4 µM (inactive)
same,GI50,HCC 2998,35.6 µM (inactive)
same,GI50,UO-31,21.5 µM (inactive)
same,GI50,SNB-19,38 µM (inactive)
same,GI50,CAKI-1,47.5 µM (inactive)
same,GI50,NCI-H226,37.7 µM (inactive)
same,GI50,RXF 393,28.8 µM (inactive)
same,GI50,A498,33.9 µM (inactive)
same,GI50,LOX IMVI,31.7 µM (inactive)
same,GI50,OVCAR-3,22.5 µM (inactive)
same,GI50,SF-539,34.8 µM (inactive)
same,GI50,MCF7,32.6 µM (inactive)
same,GI50,TK-10,27.6 µM (inactive)
same,GI50,BT-549,28.9 µM (inactive)
same,GI50,HOP-92,28.9 µM (inactive)
